Target: T1, Solute carrier organic anion transporter family member 1B1 (Homo sapiens, UniProt Q9Y6L6)
T1 sequence (Q9Y6L6 whole entry): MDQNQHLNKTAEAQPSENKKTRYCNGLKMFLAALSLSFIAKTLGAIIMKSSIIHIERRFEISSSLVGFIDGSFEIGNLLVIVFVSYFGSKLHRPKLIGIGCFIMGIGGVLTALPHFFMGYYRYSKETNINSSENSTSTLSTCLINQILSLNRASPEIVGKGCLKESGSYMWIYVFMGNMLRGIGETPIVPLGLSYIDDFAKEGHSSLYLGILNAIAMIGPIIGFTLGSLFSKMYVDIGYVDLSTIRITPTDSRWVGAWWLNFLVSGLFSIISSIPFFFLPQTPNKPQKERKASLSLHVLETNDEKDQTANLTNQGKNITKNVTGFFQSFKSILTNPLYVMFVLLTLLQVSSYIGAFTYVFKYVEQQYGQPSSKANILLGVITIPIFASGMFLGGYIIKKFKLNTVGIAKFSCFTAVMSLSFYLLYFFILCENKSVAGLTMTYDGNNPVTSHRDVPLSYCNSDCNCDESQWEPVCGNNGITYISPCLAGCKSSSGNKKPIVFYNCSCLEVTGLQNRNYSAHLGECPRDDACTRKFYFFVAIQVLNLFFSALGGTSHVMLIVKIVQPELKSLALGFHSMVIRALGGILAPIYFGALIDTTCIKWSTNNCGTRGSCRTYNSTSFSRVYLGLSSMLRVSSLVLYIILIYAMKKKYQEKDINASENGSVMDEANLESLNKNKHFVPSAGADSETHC

Ki | Compound
2 nM | COc1ccc2c(c1)c(CC(=O)O)c(C)n2C(=O)c1ccc(Cl)cc1 [indometacin]
> 10000 nM | Cc1ccc(-c2ncc(Cl)cc2-c2ccc(S(C)(=O)=O)cc2)cn1

Reference: BindingDB's records for PubMed 11160644 (Merck Frosst Centre For Therapeutic Research, 2001)
